Columns and labels:
[1] = molecular target: ABL1(T315I)-nonphosphorylated (Homo sapiens, UniProt P00519, T315I); assay: biochemical; details: read-out: Percent control
FLT3(N841I) = molecular target: T1, FLT3(N841I) (Homo sapiens, UniProt P36888, N841I); assay: biochemical; details: read-out: Percent control
T1 sequence (P36888 27-993 N841I): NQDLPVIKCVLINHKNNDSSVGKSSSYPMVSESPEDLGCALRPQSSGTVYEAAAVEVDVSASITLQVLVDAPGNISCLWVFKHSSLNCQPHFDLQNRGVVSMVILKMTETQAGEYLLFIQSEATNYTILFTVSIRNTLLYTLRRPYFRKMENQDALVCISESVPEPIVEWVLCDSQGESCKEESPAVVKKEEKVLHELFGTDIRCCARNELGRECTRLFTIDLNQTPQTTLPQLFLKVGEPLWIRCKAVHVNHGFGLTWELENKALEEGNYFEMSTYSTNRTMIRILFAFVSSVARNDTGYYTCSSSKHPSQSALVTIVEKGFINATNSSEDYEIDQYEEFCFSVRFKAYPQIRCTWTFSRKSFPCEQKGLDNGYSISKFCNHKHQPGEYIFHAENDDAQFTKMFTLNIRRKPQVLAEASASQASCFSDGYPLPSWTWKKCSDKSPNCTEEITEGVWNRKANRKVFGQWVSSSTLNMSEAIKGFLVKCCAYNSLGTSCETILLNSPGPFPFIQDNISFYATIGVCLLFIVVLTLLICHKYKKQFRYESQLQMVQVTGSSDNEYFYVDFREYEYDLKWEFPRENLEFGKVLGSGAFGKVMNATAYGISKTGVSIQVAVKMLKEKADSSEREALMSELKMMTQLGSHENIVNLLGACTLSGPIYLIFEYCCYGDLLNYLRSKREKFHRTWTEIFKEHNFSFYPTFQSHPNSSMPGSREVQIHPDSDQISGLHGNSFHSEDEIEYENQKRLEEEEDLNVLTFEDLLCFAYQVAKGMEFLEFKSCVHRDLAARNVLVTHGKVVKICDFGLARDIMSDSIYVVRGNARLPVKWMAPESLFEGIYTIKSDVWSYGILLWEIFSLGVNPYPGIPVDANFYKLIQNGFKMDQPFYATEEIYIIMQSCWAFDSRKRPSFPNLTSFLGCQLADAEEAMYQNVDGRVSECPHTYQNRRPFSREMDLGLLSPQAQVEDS

RET = RET (Homo sapiens, UniProt P07949); assay: biochemical; details: read-out: Percent control
RET, sequence (P07949 29-1114): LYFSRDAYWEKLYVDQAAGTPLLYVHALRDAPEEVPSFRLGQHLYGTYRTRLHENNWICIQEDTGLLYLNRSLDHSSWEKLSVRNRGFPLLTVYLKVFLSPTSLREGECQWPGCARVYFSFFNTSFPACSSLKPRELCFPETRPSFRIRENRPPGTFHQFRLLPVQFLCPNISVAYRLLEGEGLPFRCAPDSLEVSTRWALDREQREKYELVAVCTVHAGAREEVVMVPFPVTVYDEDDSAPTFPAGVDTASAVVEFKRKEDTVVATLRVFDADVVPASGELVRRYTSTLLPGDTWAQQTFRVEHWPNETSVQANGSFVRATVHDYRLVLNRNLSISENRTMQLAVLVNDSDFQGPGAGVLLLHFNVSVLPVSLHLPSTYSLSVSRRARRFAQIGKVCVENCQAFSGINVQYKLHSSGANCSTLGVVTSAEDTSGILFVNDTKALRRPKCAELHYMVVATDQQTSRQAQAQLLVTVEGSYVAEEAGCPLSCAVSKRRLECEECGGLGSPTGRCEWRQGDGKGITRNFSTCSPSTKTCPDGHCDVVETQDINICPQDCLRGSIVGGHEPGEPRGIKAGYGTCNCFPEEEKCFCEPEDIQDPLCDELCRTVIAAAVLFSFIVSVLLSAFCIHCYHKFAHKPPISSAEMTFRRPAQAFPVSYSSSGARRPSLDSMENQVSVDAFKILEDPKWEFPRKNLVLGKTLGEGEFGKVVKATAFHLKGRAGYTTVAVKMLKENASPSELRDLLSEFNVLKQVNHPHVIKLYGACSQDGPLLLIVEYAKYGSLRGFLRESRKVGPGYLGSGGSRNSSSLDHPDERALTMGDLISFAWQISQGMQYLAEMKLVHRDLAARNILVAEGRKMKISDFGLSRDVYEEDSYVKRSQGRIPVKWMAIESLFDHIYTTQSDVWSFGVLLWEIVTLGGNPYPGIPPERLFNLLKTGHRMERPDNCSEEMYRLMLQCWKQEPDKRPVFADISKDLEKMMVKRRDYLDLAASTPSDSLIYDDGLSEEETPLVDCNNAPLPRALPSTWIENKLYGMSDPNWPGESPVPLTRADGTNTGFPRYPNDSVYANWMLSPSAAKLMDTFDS

K562 Ima1.0 = assay: Anticancer activity in imatinib-selected resistant K562 subline; assay type: cell-based; details: read-out: Anticancer activity (IC50) K562 Imatinib selected (K562 Ima1.0); Bcr-Abl amplification
EPHA1 = molecular target: T2, EPHA1 (Homo sapiens, UniProt P21709); assay: biochemical; details: read-out: Percent control
T2 sequence (P21709 26-976): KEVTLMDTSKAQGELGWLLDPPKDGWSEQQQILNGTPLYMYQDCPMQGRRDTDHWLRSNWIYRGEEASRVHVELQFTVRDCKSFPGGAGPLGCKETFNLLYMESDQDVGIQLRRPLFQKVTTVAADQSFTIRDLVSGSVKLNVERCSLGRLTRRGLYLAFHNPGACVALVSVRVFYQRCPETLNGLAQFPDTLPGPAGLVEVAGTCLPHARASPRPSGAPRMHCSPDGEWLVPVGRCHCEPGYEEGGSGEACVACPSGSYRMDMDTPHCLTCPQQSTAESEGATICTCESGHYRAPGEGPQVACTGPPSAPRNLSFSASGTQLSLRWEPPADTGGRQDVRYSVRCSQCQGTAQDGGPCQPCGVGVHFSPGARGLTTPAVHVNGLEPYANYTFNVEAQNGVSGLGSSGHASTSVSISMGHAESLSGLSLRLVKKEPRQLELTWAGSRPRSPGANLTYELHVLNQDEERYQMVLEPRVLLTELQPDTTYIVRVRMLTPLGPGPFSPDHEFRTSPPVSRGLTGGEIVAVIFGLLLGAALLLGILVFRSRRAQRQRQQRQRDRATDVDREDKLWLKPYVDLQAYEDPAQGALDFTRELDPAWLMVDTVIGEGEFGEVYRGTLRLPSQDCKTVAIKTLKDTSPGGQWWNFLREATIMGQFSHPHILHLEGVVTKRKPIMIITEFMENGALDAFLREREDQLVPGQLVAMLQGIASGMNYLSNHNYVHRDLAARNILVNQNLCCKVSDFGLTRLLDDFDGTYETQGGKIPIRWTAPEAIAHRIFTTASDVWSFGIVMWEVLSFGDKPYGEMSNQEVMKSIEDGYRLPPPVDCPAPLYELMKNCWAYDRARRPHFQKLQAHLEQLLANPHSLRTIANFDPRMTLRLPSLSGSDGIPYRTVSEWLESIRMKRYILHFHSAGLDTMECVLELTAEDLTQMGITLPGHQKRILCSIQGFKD

TIE2 = TIE2 (Homo sapiens, UniProt Q02763); assay: biochemical; details: read-out: Percent control
TIE2, sequence (Q02763 23-1124): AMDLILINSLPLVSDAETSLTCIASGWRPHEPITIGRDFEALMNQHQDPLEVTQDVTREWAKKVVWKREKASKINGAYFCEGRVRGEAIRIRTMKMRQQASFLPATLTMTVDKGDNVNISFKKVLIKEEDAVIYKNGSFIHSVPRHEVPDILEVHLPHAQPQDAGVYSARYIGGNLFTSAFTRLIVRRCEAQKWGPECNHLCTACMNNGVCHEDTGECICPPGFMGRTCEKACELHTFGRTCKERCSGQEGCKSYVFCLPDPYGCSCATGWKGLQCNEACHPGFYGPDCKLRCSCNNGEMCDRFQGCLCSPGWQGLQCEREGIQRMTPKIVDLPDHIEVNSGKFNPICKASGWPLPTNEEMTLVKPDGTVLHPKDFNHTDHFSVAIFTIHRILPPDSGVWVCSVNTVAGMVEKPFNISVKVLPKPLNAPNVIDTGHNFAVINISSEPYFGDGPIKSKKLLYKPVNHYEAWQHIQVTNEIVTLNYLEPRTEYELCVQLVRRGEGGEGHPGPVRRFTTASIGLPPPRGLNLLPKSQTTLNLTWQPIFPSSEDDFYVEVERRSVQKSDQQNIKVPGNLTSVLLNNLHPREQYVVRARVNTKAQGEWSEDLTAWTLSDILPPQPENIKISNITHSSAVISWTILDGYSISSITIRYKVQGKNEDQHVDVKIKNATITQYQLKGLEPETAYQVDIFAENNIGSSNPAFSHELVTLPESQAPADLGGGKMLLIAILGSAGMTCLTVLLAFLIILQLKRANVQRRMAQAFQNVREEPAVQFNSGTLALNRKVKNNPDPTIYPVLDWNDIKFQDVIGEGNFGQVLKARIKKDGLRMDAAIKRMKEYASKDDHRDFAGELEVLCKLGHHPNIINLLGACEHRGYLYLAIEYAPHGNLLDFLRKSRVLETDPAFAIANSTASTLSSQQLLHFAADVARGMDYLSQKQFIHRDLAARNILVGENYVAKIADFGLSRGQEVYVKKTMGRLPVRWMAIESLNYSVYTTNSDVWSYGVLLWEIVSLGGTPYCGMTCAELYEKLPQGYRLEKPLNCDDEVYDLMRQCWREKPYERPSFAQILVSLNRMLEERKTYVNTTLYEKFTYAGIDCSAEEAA

SMILES: C#Cc1cccc(Nc2ncnc3cc(OCCOC)c(OCCOC)cc23)c1 [Erlotinib]
- remaining activity at 10 µM [1]: 5.8%
- remaining activity at 10 µM (FLT3(N841I)): 4.8%
- remaining activity at 10 µM (RET): 11.5%

SMILES: Cc1ccc(NC(=O)c2ccc(CN3CCN(C)CC3)cc2)cc1Nc1nccc(-c2cccnc2)[n+]1[Pt-2]1([Cl])[NH2+]C2CCCCC2[NH2+]1 (stereo not drawn) [1b, oxaliplatin-imatinib]
- IC50 (K562 Ima1.0): 2920 ± 930 nM

SMILES: COc1cc2c(Nc3ccc(Br)cc3F)ncnc2cc1OCC1CCN(C)CC1 [Vandetanib, reference compound]
- remaining activity at 10 µM (EPHA1): 2.2%
- remaining activity at 10 µM (TIE2): 9.1%

— paper PMC4858680, “A platinum-based hybrid drug design approach to circumvent acquired resistance to molecular targeted tyrosine kinase inhibitors” (Scientific Reports, 2016)
